Like-named read-outs stand apart in the source and are kept apart here.
Key:
Assay type in all cases: in vivo
[1] = test system: ragweed (common ragweed, Ambrosia elatior); assay: Test A postemergence; settings: Ambrosia artemisiifolia, post-emergence, 240 h, postemergence; for pest or weed control at 125 g/ha: 125 g ai/ha
In short: (§1)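 In a loam soil and sand blend, planted seeds got a preemergence directed soil spray, and young plants at the one- to two-leaf stage, 2–10 cm high, got a postemergence application; ~10 d greenhouse hold; injury rated visually, 0 = none, 100 = complete control.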

[2] = test system: ryegrass, Italian (Italian ryegrass, Lolium multiflorum); assay: Test A postemergence; settings: Lolium multiflorum, post-emergence, 240 h, postemergence; for pest or weed control at 125 g/ha: 125 g ai/ha
In short: as §1

[3] = test system: giant foxtail (Setaria faberii); assay: Test A postemergence; settings: Setaria faberi, post-emergence, 240 h, postemergence; for pest or weed control at 125 g/ha: 125 g ai/ha
In short: as §1

[4] = test system: wheat (Triticum aestivum); assay: Test A postemergence; settings: Triticum aestivum, post-emergence, 240 h, postemergence; for plant injury at 125 g/ha: 125 g ai/ha
In short: as §1

corn (Zea mays) = assay: Test A postemergence; settings: Zea mays, post-emergence, 240 h, postemergence; for plant injury at 125 g/ha: 125 g ai/ha
In short: as §1

[5] = test system: Galium (catchweed bedstraw, Galium aparine); assay: Test A postemergence; settings: Galium, post-emergence, 240 h, postemergence; for pest or weed control at 125 g/ha: 125 g ai/ha
In short: as §1

[6] = test system: blackgrass (Alopecurus myosuroides); assay: Test A postemergence; settings: Alopecurus myosuroides, post-emergence, 240 h, postemergence; for pest or weed control at 125 g/ha: 125 g ai/ha
In short: as §1

[7] = test system: pigweed (Amaranthus retroflexus); assay: Test A postemergence; settings: Amaranthus retroflexus, post-emergence, 240 h, postemergence; for pest or weed control at 125 g/ha: 125 g ai/ha
In short: as §1

Kochia (Kochia scoparia) = assay: Test A postemergence; settings: Bassia scoparia, post-emergence, 240 h, postemergence; for pest or weed control at 125 g/ha: 125 g ai/ha
In short: as §1

[8] = test system: barnyardgrass (Echinochloa crus-galli); assay: Test A postemergence; settings: Echinochloa crus-galli, post-emergence, 240 h, postemergence; for pest or weed control at 125 g/ha: 125 g ai/ha
In short: as §1

rice (Oryra sativa) = assay: Test B flooded paddy test; settings: Oryza sativa, Flood, 250 g ai/ha, read-out: Rice plant response rating
In short: (§2)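 Flooding to 3 cm over soil accompanied treatment, which consisted of adding compound to the standing water around 2-leaf plants; depth was then maintained. Visual assessment versus controls followed at 13 to 15 d (scale 0–100, 0 meaning no effect).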

[9] = test system: ducksalad (Heteranthera limosa); assay: Test B flooded paddy test; settings: Heteranthera limosa, Flood, 250 g ai/ha, read-out: Ducksalad plant response rating
In short: as §2

[10] = test system: sedge, umbrella (small-flower umbrella sedge, Cyperus difformis); assay: Test B flooded paddy test; settings: Cyperus difformis, Flood, 250 g ai/ha, read-out: Sedge, Umbrella plant response rating
In short: as §2

[11] = test system: barnyardgrass (Echinochloa crus-galli); assay: Test B flooded paddy test; settings: Echinochloa crus-galli, Flood, 250 g ai/ha, read-out: Barnyardgrass plant response rating
In short: as §2

[12] = test system: barnyardgrass (Echinochloa crus-galli); assay: Test A preemergence; settings: Echinochloa crus-galli, pre-emergence, 240 h; for pest or weed control at 125 g/ha: 125 g ai/ha; for pest or weed control at 500 g/ha: 500 g ai/ha
In short: as §1

[13] = visual injury rating after approximately 10 d, read-out: Ragweed plant response rating (0 to 100 scale, 0 no effect, 100 complete control)
[14] = visual injury rating after approximately 10 d, read-out: Ryegrass, Italian plant response rating (0 to 100 scale, 0 no effect, 100 complete control)
[15] = visual injury rating after approximately 10 d, read-out: Foxtail, Giant plant response rating (0 to 100 scale, 0 no effect, 100 complete control)
[16] = visual injury rating after approximately 10 d, read-out: Wheat plant response rating (0 to 100 scale, 0 no effect, 100 complete control)
[17] = visual injury rating after approximately 10 d, read-out: Corn plant response rating (0 to 100 scale, 0 no effect, 100 complete control)
[18] = visual injury rating after approximately 10 d, read-out: Galium plant response rating (0 to 100 scale, 0 no effect, 100 complete control)
[19] = visual injury rating after approximately 10 d, read-out: Blackgrass plant response rating (0 to 100 scale, 0 no effect, 100 complete control)
[20] = visual injury rating after approximately 10 d, read-out: Pigweed plant response rating (0 to 100 scale, 0 no effect, 100 complete control)
[21] = visual injury rating after approximately 10 d, read-out: Kochia plant response rating (0 to 100 scale, 0 no effect, 100 complete control)
[22] = visual injury rating after approximately 10 d, read-out: Barnyardgrass plant response rating (0 to 100 scale, 0 no effect, 100 complete control)
[23] = scale of 0 to 100 where 0 is no effect and 100 is complete control
[24] = preemergence, 0 to 100 scale where 0 is no effect and 100 is complete control, read-out: Barnyardgrass plant response rating
[25] = Preemergence, visual injury vs untreated controls after approximately 10 d, read-out: Barnyardgrass plant response rating (0 to 100 scale where 0 is no effect and 100 is complete control)
[26] = 0 to 100 scale where 0 is no effect and 100 is complete control

SMILES: CN1C[C@H](c2cccc(C3CC3)c2)[C@@H](C(=O)Nc2ccc(F)cc2F)C1=O [Compound 818]
- pest or weed control at 125 g/ha [1, 13]: 0%
- pest or weed control at 125 g/ha [2, 14]: 40%
- pest or weed control at 125 g/ha [3, 15]: 90%
- plant injury at 125 g/ha [4, 16]: 0%
- plant injury at 125 g/ha (corn (Zea mays); [17]): 40%
- pest or weed control at 125 g/ha [5, 18]: 50%
- pest or weed control at 125 g/ha [6, 19]: 30%
- pest or weed control at 125 g/ha [7, 20]: 20%
- pest or weed control at 125 g/ha (Kochia (Kochia scoparia); [21]): 40%
- pest or weed control at 125 g/ha [8, 22]: 90%
- pest or weed control at 250 g/ha (rice (Oryra sativa); [23]): 0%
- pest or weed control at 250 g/ha [9, 23]: 80%
- pest or weed control at 250 g/ha [10, 23]: 0%
- pest or weed control at 250 g/ha [11, 23]: 55%
- pest or weed control at 125 g/ha [12, 24]: 90%
- pest or weed control at 500 g/ha [12, 25]: 100%

SMILES: CN1C[C@H](c2cccc(F)c2)[C@@H](C(=O)Nc2ccccc2C(F)(F)F)C1=O [Compound 823]
- pest or weed control at 125 g/ha [1, 13]: 20%
- pest or weed control at 125 g/ha [2, 14]: 0%
- pest or weed control at 125 g/ha [3, 15]: 90%
- plant injury at 125 g/ha [4, 16]: 0%
- plant injury at 125 g/ha (corn (Zea mays); [17]): 0%
- pest or weed control at 125 g/ha [5, 18]: 30%
- pest or weed control at 125 g/ha [6, 19]: 20%
- pest or weed control at 125 g/ha [7, 20]: 20%
- pest or weed control at 125 g/ha (Kochia (Kochia scoparia); [21]): 20%
- pest or weed control at 125 g/ha [8, 22]: 90%
- pest or weed control at 250 g/ha (rice (Oryra sativa); [23]): 0%
- pest or weed control at 250 g/ha [9, 23]: 90%
- pest or weed control at 250 g/ha [10, 23]: 0%
- pest or weed control at 250 g/ha [11, 23]: 40%
- pest or weed control at 125 g/ha [12, 24]: 90%
- pest or weed control at 500 g/ha [12, 25]: 100%

SMILES: CCc1cc(CC)cc([C@H]2CNC(=O)[C@@H]2C(=O)Nc2ccccc2F)c1 [Compound 1138]
- pest or weed control at 125 g/ha ([1]; visual injury on 0 to 100 scale (0 no effect, 100 complete control), approx. 10 d, read-out: Ragweed plant response rating): 0%
- pest or weed control at 500 g/ha ([1]; 500 g ai/ha, 0 to 100 scale, 0 is no effect, 100 is complete control, read-out: Ragweed plant response rating): 0%
- pest or weed control at 125 g/ha ([2]; visual injury on 0 to 100 scale (0 no effect, 100 complete control), approx. 10 d, read-out: Ryegrass, Italian plant response rating): 0%
- pest or weed control at 500 g/ha ([2]; 500 g ai/ha, 0 to 100 scale, 0 is no effect, 100 is complete control, read-out: Ryegrass, Italian plant response rating): 50%
- pest or weed control at 125 g/ha ([3]; visual injury on 0 to 100 scale (0 no effect, 100 complete control), approx. 10 d, read-out: Foxtail, Giant plant response rating): 50%
- pest or weed control at 500 g/ha ([3]; 500 g ai/ha, 0 to 100 scale, 0 is no effect, 100 is complete control, read-out: Foxtail, Giant plant response rating): 90%
- plant injury at 125 g/ha ([4]; visual injury on 0 to 100 scale (0 no effect, 100 complete control), approx. 10 d, read-out: Wheat plant response rating): 30%
- plant injury at 500 g/ha ([4]; 500 g ai/ha, 0 to 100 scale, 0 is no effect, 100 is complete control, read-out: Wheat plant response rating): 70%
- plant injury at 125 g/ha (corn (Zea mays); visual injury on 0 to 100 scale (0 no effect, 100 complete control), approx. 10 d, read-out: Corn plant response rating): 50%
- plant injury at 500 g/ha (corn (Zea mays); 500 g ai/ha, 0 to 100 scale, 0 is no effect, 100 is complete control, read-out: Corn plant response rating): 80%
- pest or weed control at 125 g/ha ([5]; visual injury on 0 to 100 scale (0 no effect, 100 complete control), approx. 10 d, read-out: Galium plant response rating): 20%
- pest or weed control at 500 g/ha ([5]; 500 g ai/ha, 0 to 100 scale, 0 is no effect, 100 is complete control, read-out: Galium plant response rating): 50%
- pest or weed control at 125 g/ha ([6]; visual injury on 0 to 100 scale (0 no effect, 100 complete control), approx. 10 d, read-out: Blackgrass plant response rating): 30%
- pest or weed control at 500 g/ha ([6]; 500 g ai/ha, 0 to 100 scale, 0 is no effect, 100 is complete control, read-out: Blackgrass plant response rating): 60%
- pest or weed control at 125 g/ha ([7]; visual injury on 0 to 100 scale (0 no effect, 100 complete control), approx. 10 d, read-out: Pigweed plant response rating): 0%
- pest or weed control at 500 g/ha ([7]; 500 g ai/ha, 0 to 100 scale, 0 is no effect, 100 is complete control, read-out: Pigweed plant response rating): 0%
- pest or weed control at 125 g/ha (Kochia (Kochia scoparia); visual injury on 0 to 100 scale (0 no effect, 100 complete control), approx. 10 d, read-out: Kochia plant response rating): 0%
- pest or weed control at 500 g/ha (Kochia (Kochia scoparia); 500 g ai/ha, 0 to 100 scale, 0 is no effect, 100 is complete control, read-out: Kochia plant response rating): 0%
- pest or weed control at 125 g/ha ([8]; visual injury on 0 to 100 scale (0 no effect, 100 complete control), approx. 10 d, read-out: Barnyardgrass plant response rating): 90%
- pest or weed control at 500 g/ha ([8]; 500 g ai/ha, 0 to 100 scale, 0 is no effect, 100 is complete control, read-out: Barnyardgrass plant response rating): 90%
- pest or weed control at 250 g/ha (rice (Oryra sativa); [26]): 0%
- pest or weed control at 250 g/ha [9, 26]: 75%
- pest or weed control at 250 g/ha [10, 26]: 0%
- pest or weed control at 250 g/ha [11, 26]: 60%
- pest or weed control at 125 g/ha ([12]; preemergence, 0 to 100 scale where 0 is no effect and 100 is complete control, approx. 10 d, read-out: Barnyardgrass plant response rating): 90%
- pest or weed control at 500 g/ha [12, 24]: 90%

Source: US12077503B2, “Substituted cyclic amides and their use as herbicides” (FMC CORPORATION, priority 2015, dated 2024)
